Where a name gives a salt, the structure may show the parent alone.
| flash point [°C] | SMILES |
| --- | --- |
| -7.00 | CCCC=O [butanal] |
| -23.00 | CCC(C)S (configuration not stated) [butane-2-thiol] |
| -60.00 | CCCC [butane] |
| 52.00 | C=C(C)C(=O)OCCCC [butyl 2-methylprop-2-enoate] |
| 181.00 | CCCCOC(=O)c1ccc(O)cc1 [butyl 4-hydroxybenzoate] |
| 52.00 | CCCC[Si](Cl)(Cl)Cl [butyl(trichloro)silane] |
| 6.00 | C1CCCCCC1 [cycloheptane] |
| 57.00 | O=CC1CC=CCC1 (configuration not stated) [cyclohex-3-ene-1-carbaldehyde] |
| 68.00 | OC1CCCCC1 [cyclohexanol] |
| 58.00 | CC(=O)OC1CCCCC1 [cyclohexyl acetate] |
| 4.00 | [C-]1=CC=CC1.[C-]1=CC=CC1.[Ni+2] [cyclopenta-1,3-diene;nickel(2+)] |
| 4.00 | C1=CCC=C1.C1=CCC=C1.[Ni] [cyclopenta-1,3-diene;nickel] |
| 30.00 | O=C1CCCC1 [cyclopentanone] |
| 127.00 | C=CC(=O)OCCCCCCCCCC [decyl prop-2-enoate] |
| 76.00 | CCOC(=O)C(=O)OCC [diethyl oxalate] |
| 224.00 | CCCCCCCOC(=O)c1ccccc1C(=O)OCCCCCCC [diheptyl benzene-1,2-dicarboxylate] |
| -18.00 | COCOC [dimethoxymethane] |
| 103.00 | COC(=O)CCCC(=O)OC [dimethyl pentanedioate] |
| 113.00 | CCCCCCCCCCCC(=O)O [dodecanoic acid] |
| 63.00 | CCOc1ccccc1 [ethoxybenzene] |
| 82.00 | C=C(C#N)C(=O)OCC [ethyl 2-cyanoprop-2-enoate] |
| 16.00 | C=C(C)C(=O)OCC [ethyl 2-methylprop-2-enoate] |
| 64.00 | CCOC(=O)CC(C)O (configuration not stated) [ethyl 3-hydroxybutanoate] |
| 92.00 | CCOC(N)=O [ethyl carbamate] |
| 35.00 | CCC1CCCCC1 [ethylcyclohexane] |
| -10.00 | CCSCC [ethylsulfanylethane] |

Continued, compound first:

| SMILES | flash point [°C] |
| --- | --- |
| C=CCOC(=O)c1ccccc1C(=O)OCC=C [bis(prop-2-enyl) benzene-1,2-dicarboxylate] | 110.00 |
| Brc1ccccc1 [bromobenzene] | 51.00 |
| OCC#CCO [but-2-yne-1,4-diol] | 128.00 |
| CCCCO.[Ti] [butan-1-ol;titanium] | 77.00 |
| CCCC[O-].CCCC[O-].CCCC[O-].CCCC[O-].[Ti+4] [butan-1-olate;titanium(4+)] | 77.00 |
| CC(O)CCO (configuration not stated) [butane-1,3-diol] | 121.00 |
| CC(O)C(C)O (configuration not stated) [butane-2,3-diol] | 85.00 |
| CCCC#N [butanenitrile] | 17.00 |
| CCCC(=O)O [butanoic acid] | 77.00 |
| CCCC(=O)OC(=O)CCC [butanoyl butanoate] | 82.00 |
| CCCCOC(=O)[C@@H](C)Oc1ccc(Oc2ccc(C#N)cc2F)cc1 [butyl (2R)-2-[4-(4-cyano-2-fluorophenoxy)phenoxy]propanoate] | 122.00 |
| CCCCOC(=O)CCC [butyl butanoate] | 53.00 |
| CCCCCCCCCCCCCCCCCC(=O)OCCCC [butyl octadecanoate] | 160.00 |
| CCC[CH2][Sn]([Cl])([Cl])[Cl] [butyl(trichloro)stannane] | 81.00 |
| C[CH2][Al]([Cl])[CH2]C.C[CH2][Al]([Cl])[Cl] [chloro(diethyl)alumane;dichloro(ethyl)alumane] | -20.00 |
| C[CH2][Al]([Cl])[CH2]C [chloro(diethyl)alumane] | -23.00 |
| Clc1ccccc1 [chlorobenzene] | 24.00 |
| CCCCCCCCCCCCCCCCCC(=O)[O-].[Cl-].[Cl-].[Cl-].[Cl-].[Cr+3].[Cr+3].[OH-] [chromium(3+);octadecanoate;tetrachloride;hydroxide] | 2.00 |
| NC1CCCCC1 [cyclohexanamine] | 31.00 |
| OC1CCCC1 [cyclopentanol] | 51.00 |
| C1=CCCC1 [cyclopentene] | -34.00 |
| CCCCCCCCCC [decane] | 46.00 |
| CCCCOC(=O)CCC(=O)OCCCC [dibutyl butanedioate] | 135.00 |
| CC[Si](Cl)(Cl)CC [dichloro(diethyl)silane] | 24.00 |
| ClC(Cl)c1ccccc1 [dichloromethylbenzene] | 92.00 |
| O=C(OC1CCCCC1)c1ccccc1C(=O)OC1CCCCC1 [dicyclohexyl benzene-1,2-dicarboxylate] | 207.00 |

| SMILES | flash point [°C] |
| --- | --- |
| CCOC(=O)/C=C/C(=O)OCC [diethyl (E)-but-2-enedioate] | 104.00 |
| CCOC(=O)c1ccccc1C(=O)OCC [diethyl benzene-1,2-dicarboxylate] | 140.00 |
| CCOC(=O)CCC(=O)OCC [diethyl butanedioate] | 90.00 |
| CCOC(=O)OCC [diethyl carbonate] | 25.00 |
| CCOS(=O)(=O)OCC [diethyl sulfate] | 104.00 |
| COC(=O)CCC(=O)OC [dimethyl butanedioate] | 85.00 |
| COS(=O)(=O)OC [dimethyl sulfate] | 83.00 |
| CN(C)C(=S)SSC(=S)N(C)C [dimethylcarbamothioylsulfanyl N,N-dimethylcarbamodithioate] | 138.00 |
| CN(C)C#N [dimethylcyanamide] | 71.00 |
| CCCCCCCCOP(=O)(O)OCCCCCCCC [dioctyl hydrogen phosphate] | 196.00 |
| CCCCCCCCCCCCCCCCCCCCCC [docosane] | 113.00 |
| CCCCCCCCCCCCN [dodecan-1-amine] | 178.00 |
| CCO [ethanol] | 13.00 |
| C=C [ethene] | -136.00 |
| CCOC(=O)CBr [ethyl 2-bromoacetate] | 48.00 |
| CCOC(=O)C(C)O (configuration not stated) [ethyl 2-hydroxypropanoate] | 46.00 |
| CCOC(=O)C#Cc1ccccc1 [ethyl 3-phenylprop-2-ynoate] | 113.00 |
| CCOS(=O)(=O)c1ccc(C)cc1 [ethyl 4-methylbenzenesulfonate] | 158.00 |
| CCOC(=O)NC [ethyl N-methylcarbamate] | 73.00 |
| CCCC(=O)OCC [ethyl butanoate] | 24.00 |
| CCON=O [ethyl nitrite] | -35.00 |
| CCOC(=O)CC [ethyl propanoate] | 12.00 |
| c1ccc2c(c1)-c1cccc3cccc-2c13 [fluoranthene] | 198.00 |
| O=Cc1ccco1 [furan-2-carbaldehyde] | 60.00 |
| OCc1ccco1 [furan-2-ylmethanol] | 75.00 |
